Drawing on patent US10059667B2, “Antidiabetic compounds” (MERCK SHARP & DOHME CORP., priority 2014, dated 2018), this text covers EC50 for 29 molecules.

What all share (format): cell-based
Assay [1] concerns the target T1, Human GPR40 (Homo sapiens (Human), UniProt O14842). Briefly: Inositol Phosphate Turnover (IP1) Assay 2, HEK cells stably expressing human GPR40, CisBio IP-One kit. The note with it: HEK cells stably expressing human GPR40, 384-well. How it is done:
(§1) Human and mouse GPR40 stable cell-lines were generated in CHO cells stably expressing NFAT BLA (Beta-lactamase). A human GPR40 stable cell-line was generated in HEK cells stably expressing the aequorin expressing reporter. The expression plasmids were transfected using lipofectamine (Life Technologies) following manufacturer's instructions. Stable cell-lines were generated following drug selection.
The assay was performed in 384-well format. HEK cells stably expressing human GPR40 were plated at 15,000 cells per well in growth medium (DMEM/10% fetal calf serum). Cell plates were then incubated 16 hours at 37 degrees in a 5% CO2 incubator.
Measurement of Inositol Phosphate Turnover (IP1) was performed using the CisBio IP-One kit (Part number 62IPAPEB). After the 16 hour incubation, the cells were washed with HEPES buffer and 10 ul of stimulation buffer (prepared as described in the kit) was added to each well. In a separate plate, compounds were diluted in DMSO (400-fold over the final concentration in the assay well) and 25 nl was acoustically transferred to the appropriate well in the assay cell plate.
The plates were then incubated for 60 minutes at 37 degrees. 10 ul of detection buffer (also prepared as described in the IP-One kit) was added to each well and the plates were incubated for 60 minutes in the dark. The plates were then read in a Perkin Elmer EnVision or equivalent reader able to measure FRET. Fluorescent ratio of emission at 665 and 620 nm was then converted to IP1 concentration by back calculating from an IP1 standard curve prepared at the time of the assay.

Assay [2] has as its target T1, Human GPR40. Briefly: FLIPR assay, agonist-induced calcium mobilization in GPR40/CHO NFAT BLA cells. As for the experimental part:
as §1
FLIPR (Fluorimetric Imaging Plate Reader, Molecular Devices) assays were performed to measure agonist-induced calcium mobilization of the stable clones. For the FLIPR assay, one day before assay, GPR40/CHO NFAT BLA cells were seeded into black-wall-clear-bottom 384-well plates (Costar) at 1.4×10e4 cells/20 μL medium/well. The cells were incubated with 20 μl/well of the assay buffer (HBSS, 0.1% BSA, 20 mM HEPES, 2.5 mM probenecid, pH 7.4) containing 8 μM fluo-4, AM, 0.08% pluronic acid at room temperature for 100 minutes. Fluorescence output was measured using FLIPR. Compounds were dissolved in DMSO and diluted to desired concentrations with assay buffer. 13.3 μL/well of compound solution was added.

Assay [3] has as its target T1, Human GPR40. Description: Inositol Phosphate Turnover (IP1) Assay 1, HEK cells stably expressing human GPR40, 3H-inositol SPA. The note with it: HEK cells stably expressing human GPR40, 96-well. The method, boiled down:
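HEK cells stably expressing human GPR40, labelled 18 h with 3H-myo-inositol in inositol-free medium with 0.4% human or mouse albumin. LiCl added 20 min at 37 degrees, then compound 60 min at 37 degrees; formic acid lysates counted by YSi SPA beads for inositol phosphates.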

T1 sequence (O14842 whole entry): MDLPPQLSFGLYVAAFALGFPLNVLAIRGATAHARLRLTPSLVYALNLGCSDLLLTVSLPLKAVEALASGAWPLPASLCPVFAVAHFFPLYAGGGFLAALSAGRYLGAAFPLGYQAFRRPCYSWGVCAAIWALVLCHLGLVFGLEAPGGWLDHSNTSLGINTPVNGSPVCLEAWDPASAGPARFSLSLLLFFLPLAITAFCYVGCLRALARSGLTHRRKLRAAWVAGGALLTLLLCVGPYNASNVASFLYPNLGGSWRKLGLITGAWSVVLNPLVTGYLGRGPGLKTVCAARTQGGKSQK

For `COc1cc(C2CC(COc3cccc([C@H](C4CC4)[C@H](C)C(=O)O)c3)C2)c(F)cn1` (single isomer, unassigned) [Example 90], the half-maximal effective concentration (EC50) (as a rule, the midpoint of the concentration-response curve) in assay [1] turned out to be 96 nM.
The same measure, in the same setting: for `COc1cc(C2CC(COc3cccc([C@H](C4CC4)[C@H](C)C(=O)O)c3)C2)c(F)cn1` (single isomer, unassigned) [Example 91] the value was 7.4 nM.
Regarding `C[C@H](C(=O)O)[C@H](c1cccc(OCC2CN(Cc3cc(C(F)(F)F)ccc3C(F)(F)F)C2)c1)C1CC1` [Example 25, (2S,3R)-3-(3-((1-(2,5-Bis(trifluoromethyl)benzyl)azetidin-3-yl)methoxy)phenyl)-3-cyclopropyl-2-methylpropanoic acid], the EC50 in assay [2] came to 1.4 nM; in assay [3] it was 79 nM.
Take `C[C@H](C(=O)O)[C@H](c1cccc(OC[C@@H]2CCN(Cc3cc(C(F)(F)F)ccc3C(F)(F)F)C2)c1)C1CC1` [Example 26]: the figures for the EC50 in assay [2] and in assay [3] were 1.5 nM and 55 nM, respectively.
Regarding `CC(c1cc(C(F)(F)F)ccc1C(F)(F)F)N1CC(COc2cccc([C@H](C3CC3)[C@H](C)C(=O)O)c2)C1` (some centres unmarked) [Example 27], the results for the EC50 in assay [2] and in assay [3] were 0.3 nM and 7.6 nM, respectively.
The matching figures for `C[C@H](C(=O)O)[C@H](c1cccc(OCC2CN(Cc3cc(C(F)(F)F)ccc3C(F)(F)F)CCO2)c1)C1CC1` (some centres unmarked) [Example 28]: 21 nM and 613 nM.
The corresponding values for `C[C@H](C(=O)O)[C@H](c1cccc(O[C@H]2CCCN(Cc3cc(C(F)(F)F)ccc3C(F)(F)F)C2)c1)C1CC1` [Example 29] are 51 nM and 711 nM.
The corresponding values for `C[C@H](C(=O)O)[C@H](c1cccc(OCC2CN(c3cccc(C(F)(F)F)n3)C2)c1)C1CC1` [Example 30] are 33 nM and 279 nM.
For `C[C@H](C(=O)O)[C@H](c1cccc(OCC2CCN(Cc3cc(C(F)(F)F)ccc3C(F)(F)F)CC2)c1)C1CC1` [Example 31], the values for the EC50 in assay [2] and in assay [3] were 1 nM and 77 nM, respectively.
The corresponding values for `C[C@H](C(=O)O)[C@H](c1cccc(OC2CN(Cc3cc(C(F)(F)F)ccc3C(F)(F)F)C2)c1)C1CC1` [Example 32] are 59 nM and 764 nM.
The matching figures for `C[C@H](C(=O)O)[C@H](c1cccc(OC[C@H]2CCN(Cc3cc(C(F)(F)F)ccc3C(F)(F)F)C2)c1)C1CC1` [Example 33]: 5.3 nM and 158 nM.
The corresponding values for `C[C@H](C(=O)O)[C@H](c1cccc(OCC2CCN(Cc3cc(C(F)(F)F)ccc3C(F)(F)F)C2)c1)C1CC1` (some centres unmarked) [Example 34] are 10 nM and 273 nM.
For `O=C(O)C[C@H](c1cccc(OC2CCN(Cc3cc(C(F)(F)F)ccc3Cl)C2)c1)C1CC1` (some centres unmarked) [Example 42], the results for the EC50 in assay [2] and in assay [3] were 94 nM and 1120 nM, respectively.
On to `CC1(COc2cccc([C@@H](CC(=O)O)C3CC3)c2)CCN(Cc2cc(C(F)(F)F)ccc2C(F)(F)F)C1` (some centres unmarked) [Example 43], for which the EC50 amounted to 231 nM in assay [2] and 952 nM in assay [3].
The corresponding values for `O=C(O)C[C@H](c1cccc(OCC2CCN(Cc3cc(C(F)(F)F)ccc3C(F)(F)F)C2)c1)C1CC1` (some centres unmarked) [Example 47] are 42 nM and 560 nM.
The corresponding values for `O=C(O)C[C@H](c1cccc(OC2CCN(Cc3cc(C(F)(F)F)ccc3C(F)(F)F)CC2)c1)C1CC1` [Example 48] are 142 nM and 1020 nM.
The corresponding values for `O=C(O)C[C@H](c1cccc(OCC2CN(Cc3cc(C(F)(F)F)ccc3C(F)(F)F)C2)c1)C1CC1` [Example 49] are 8.3 nM and 251 nM.
As to `O=C(O)C[C@H](c1cccc(OCC2CN(Cc3ccccc3OC(F)(F)F)C2)c1)C1CC1` [Example 50], the values for the EC50 in assay [2] and in assay [3] were 55 nM and 5030 nM, respectively.
The matching figures for `CC(c1cc(F)ccc1Cl)N1CC(COc2cccc([C@@H](CC(=O)O)C3CC3)c2)C1` (some centres unmarked) [Example 51]: 58 nM and 449 nM.
The matching figures for `CC(c1ccccc1Cl)N1CC(COc2cccc([C@@H](CC(=O)O)C3CC3)c2)C1` (some centres unmarked) [Example 52]: 162 nM and 5640 nM.
The corresponding values for `O=C(O)C[C@H](c1cccc(OCC2CN(Cc3c(F)cccc3C(F)(F)F)C2)c1)C1CC1` [Example 53] are 389 nM and 4570 nM.
Turning to `CC(c1cc(C(F)(F)F)ccc1C(F)(F)F)N1CC(COc2cccc([C@@H](CC(=O)O)C3CC3)c2)C1` (some centres unmarked) [Example 54], the EC50 was determined as 0.6 nM in assay [2] and 27 nM in assay [3].
The matching figures for `CC(c1ccccc1C(F)(F)F)N1CC(COc2cccc([C@@H](CC(=O)O)C3CC3)c2)C1` (some centres unmarked) [Example 55]: 7.3 nM and 904 nM.
`CC(c1cc(Cl)ccc1Cl)N1CC(COc2cccc([C@@H](CC(=O)O)C3CC3)c2)C1` (some centres unmarked) [Example 56]: the EC50 in assay [2] came out at 23 nM; in assay [3], 347 nM.
Regarding `CC(c1cc(C(F)(F)F)ccc1C1CC1)N1CC(COc2cccc([C@@H](CC(=O)O)C3CC3)c2)C1` (some centres unmarked) [Example 58], the figures for the EC50 in assay [2] and in assay [3] were 113 nM and 366 nM, respectively.
In the case of `Cc1ccc(C(F)(F)F)cc1C(C)N1CC(COc2cccc([C@@H](CC(=O)O)C3CC3)c2)C1` (some centres unmarked) [Example 59], the EC50 came to 439 nM in assay [2] and 777 nM in assay [3].
Take `CC(c1cc(C(F)(F)F)ccc1Cl)N1CC(COc2cccc([C@@H](CC(=O)O)C3CC3)c2)C1` (some centres unmarked) [Example 60]: the EC50 in assay [2] is 184 nM; in assay [3] it was 527 nM.
The corresponding values for `COc1cccc(C2CC2COc2cccc([C@@H](CC(=O)O)C3CC3)c2)c1` (some centres unmarked) [Example 61, (3 S)-3-cyclopropyl-3-(3-((2-(3-methoxyphenyl)cyclopropyl)methoxy)phenyl)propanoic acid] are 24 nM and 651 nM.
As for `COc1cc(C2CC(COc3cccc([C@H](C4CC4)[C@H](C)C(=O)O)c3)C2)c(F)cn1` (some centres unmarked) [Example 87], the half-maximal effective concentration (EC50) stood at 23 nM in assay [3] and 13 nM in assay [1].
